Measured values as given in PubChem BioAssay AID256 (DTP/NCI, 2004).
Values joined by “and” are separate entries in the source; they are usually repeats but may differ in a detail not shown here. Equal entries are not always repeated. Inconclusive results and toxic doses are left out. Rule for the calls: active = survival T/C of 150% or more; inactive = T/C below 125% in these data.

System: CD2F1 mice, L1210 leukemia ip, survival T/C
Assay: NCI In Vivo Anticancer Drug Screen. Data for tumor model L1210 Leukemia (intraperitoneal) in CD2F1 (CDF1) mice
Conditions: endpoint: mean survival time, higher = longer survival
Method in brief: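 Mice carrying a transplanted tumor received test compound or vehicle alone. The value is the measurement in the treated group divided by that in the vehicle-treated control group.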

[1] = dose: 100.0 mg/kg/injection, schedule: Q04DX003 (ip), vehicle: saline with Tween-80
[2] = dose: 200.0 mg/kg/injection, schedule: Q04DX003 (ip), vehicle: saline with Tween-80
[3] = dose: 400.0 mg/kg/injection, schedule: Q04DX003 (ip), vehicle: saline with Tween-80
[4] = dose: 100.0 mg/kg/injection, schedule: Q04DX002 (ip), vehicle: saline with Tween-80
[5] = dose: 200.0 mg/kg/injection, schedule: Q04DX002 (ip), vehicle: saline with Tween-80
[6] = dose: 400.0 mg/kg/injection, schedule: Q04DX002 (ip), vehicle: saline with Tween-80
[7] = dose: 100.0 mg/kg/injection, schedule: Q01DX009 (ip), vehicle: saline with Tween-80
[8] = dose: 200.0 mg/kg/injection, schedule: Q01DX009 (ip), vehicle: saline with Tween-80
[9] = dose: 400.0 mg/kg/injection, schedule: Q01DX009 (ip), vehicle: saline with Tween-80
[10] = dose: 100.0 mg/kg/injection, schedule: Q04DX003 (ip), vehicle: saline
[11] = dose: 200.0 mg/kg/injection, schedule: Q04DX003 (ip), vehicle: saline
[12] = dose: 100.0 mg/kg/injection, schedule: Q01DX001 (ip), vehicle: saline with Tween-80
[13] = dose: 200.0 mg/kg/injection, schedule: Q01DX001 (ip), vehicle: saline with Tween-80
[14] = dose: 400.0 mg/kg/injection, schedule: Q01DX001 (ip), vehicle: saline with Tween-80

Measured: T/C

COc1cccc2c1C(=O)c1c(O)c3c(c(O)c1C2=O)C[C@@](O)(C(=O)CN1CCOCC1)C[C@@H]3OC1CC(N)C(O)C(C)O1 (stereo partly specified)
inactive: dose: 6.25 mg/kg/injection, schedule: Q04DX003 (ip), vehicle: water 90 % of control | dose: 12.5 mg/kg/injection, schedule: Q04DX003 (ip), vehicle: water 91 % of control | dose: 25.0 mg/kg/injection, schedule: Q04DX003 (ip), vehicle: water 105 % of control | dose: 50.0 mg/kg/injection, schedule: Q04DX003 (ip), vehicle: water 91 % of control

O=C1C(O)CC(c2ccccc2)N1c1ccccc1 (stereo unspecified)
inactive: [1] 95 % of control | [2] 95 % of control | [3] 100 % of control

O=C(/C=C/c1ccccc1)Nc1ccc(Cl)c(Cl)c1
inactive: [4] 100 % of control | [5] 91 % of control | [6] 95 % of control

CCCCNC(C)[C@]1(O)Cc2c(O)c3c(c(O)c2[C@@H](OC2CC(N)C(O)C(C)O2)C1)C(=O)c1c(OC)cccc1C3=O (stereo partly specified)
inactive: dose: 0.15 mg/kg/injection, schedule: Q01DX009 (ip), vehicle: water 106 % of control | dose: 0.31 mg/kg/injection, schedule: Q01DX009 (ip), vehicle: water 114 % of control | dose: 0.62 mg/kg/injection, schedule: Q01DX009 (ip), vehicle: water 111 % of control | dose: 1.25 mg/kg/injection, schedule: Q01DX009 (ip), vehicle: water 112 % of control | dose: 2.5 mg/kg/injection, schedule: Q01DX009 (ip), vehicle: water 122 % of control | dose: 5.0 mg/kg/injection, schedule: Q01DX009 (ip), vehicle: water 118 % of control | dose: 10.0 mg/kg/injection, schedule: Q01DX009 (ip), vehicle: water 88 % of control

COc1ccc(NC(=O)Oc2cc(C(C)C)ccc2C)cc1
inactive: [4] 98 % of control | [5] 98 % of control | [6] 94 % of control

CSc1nc(N)c2ncn(C3C=CC(O)CO3)c2n1 (stereo unspecified)
inactive: dose: 50.0 mg/kg/injection, schedule: Q01DX001 (ip), vehicle: saline 106 % of control | dose: 100.0 mg/kg/injection, schedule: Q01DX001 (ip), vehicle: saline 106 % of control | dose: 200.0 mg/kg/injection, schedule: Q01DX001 (ip), vehicle: saline 100 % of control | dose: 400.0 mg/kg/injection, schedule: Q01DX001 (ip), vehicle: saline 116 % of control

CCc1ccccc1NC(=O)Nc1ccc(N(C)C(C)=O)cc1
inactive: [7] 95 % of control | [8] 93 % of control | [9] 93 % of control

O=C1CCC(=O)N1Br
inactive: [7] 101 % of control | [1] 100 % of control | [8] 96 % of control | [2] 95 % of control | [9] 101 % of control | [3] 91 % of control

CN(C)CCCNCC#CCNCCCN(C)C
inactive: dose: 50.0 mg/kg/injection, schedule: Q01DX009 (ip), vehicle: saline 100 % of control | dose: 100.0 mg/kg/injection, schedule: Q01DX009 (ip), vehicle: saline 98 % of control | [10] 101 % of control | dose: 200.0 mg/kg/injection, schedule: Q01DX009 (ip), vehicle: saline 96 % of control | [11] 95 % of control

C=C1CC[C@]2(C)CC[C@]3(C)C4=CC=C5C(=CC(=O)C(O)=C5C)[C@]4(C)CC[C@@]3(C)[C@@H]2C1
inactive: dose: 0.12 mg/kg/injection, schedule: Q01DX009 (ip), vehicle: saline with Tween-80 103 % of control | dose: 0.25 mg/kg/injection, schedule: Q01DX009 (ip), vehicle: saline with Tween-80 102 % of control | dose: 0.5 mg/kg/injection, schedule: Q01DX009 (ip), vehicle: saline with Tween-80 108 % of control | dose: 1.0 mg/kg/injection, schedule: Q01DX009 (ip), vehicle: saline with Tween-80 86 % of control

C/C=C/CC1(Cc2ccccc2)C(=O)NC(=S)NC1=O
inactive: dose: 9.5 mg/kg/injection, schedule: Q01DX001 (ip), vehicle: other 108 % of control | dose: 19.0 mg/kg/injection, schedule: Q01DX001 (ip), vehicle: other 111 % of control

C=C(C)COc1cc(C=NCCCC)c(C)cc1C
inactive: [7] 98 % of control | [8] 94 % of control | [9] 96 % of control

O=C(NCCc1c[nH]c2ccccc12)c1cccnc1
inactive: dose: 100.0 mg/kg/injection, schedule: Q04DX003 (ip), vehicle: acetone 98 % of control | dose: 200.0 mg/kg/injection, schedule: Q04DX003 (ip), vehicle: acetone 96 % of control | dose: 400.0 mg/kg/injection, schedule: Q04DX003 (ip), vehicle: acetone 98 % of control

O=C1CSC(=S)N1/N=C/c1ccc(Cl)c(Cl)c1
inactive: dose: 1.56 mg/kg/injection, schedule: Q01DX009 (ip), vehicle: saline with Tween-80 97 % of control | dose: 3.13 mg/kg/injection, schedule: Q01DX009 (ip), vehicle: saline with Tween-80 100 % of control | dose: 6.25 mg/kg/injection, schedule: Q01DX009 (ip), vehicle: saline with Tween-80 91 % of control | dose: 6.25 mg/kg/injection, schedule: Q04DX003 (ip), vehicle: saline with Tween-80 100 % of control

OCC1OC(n2cnc3c(/C=C(/O)c4ccccc4)ncnc32)C(O)C1O (stereo unspecified)
inactive: dose: 12.5 mg/kg/injection, schedule: Q01DX005 (ip), vehicle: distilled water + Tween-80 102 % of control | dose: 25.0 mg/kg/injection, schedule: Q01DX005 (ip), vehicle: distilled water + Tween-80 91 % of control | dose: 50.0 mg/kg/injection, schedule: Q01DX005 (ip), vehicle: distilled water + Tween-80 87 % of control | dose: 100.0 mg/kg/injection, schedule: Q01DX005 (ip), vehicle: distilled water + Tween-80 90 % of control | dose: 200.0 mg/kg/injection, schedule: Q01DX005 (ip), vehicle: distilled water + Tween-80 98 % of control

O=C(NC(=S)Nc1cccc2ccccc12)c1cccc(Br)c1
inactive: dose: 50.0 mg/kg/injection, schedule: Q04DX002 (ip), vehicle: saline with Tween-80 89 % of control and 98 % of control | [12] 96 % of control | [7] 98 % of control and 104 % of control | [1] 96 % of control | [13] 95 % of control | [8] 96 % of control and 98 % of control | [2] 100 % of control | [14] 95 % of control | [9] 102 % of control and 106 % of control | [6] 90 % of control and 95 % of control | [3] 96 % of control

BrCCN(CCBr)c1ccc2c3c(cccc13)-c1ccccc1-2
inactive: dose: 1.5 mg/kg/injection, schedule: Q01DX Z (ip), vehicle: saline 113 % of control | dose: 2.0 mg/kg/injection, schedule: Q01DX Z (ip), vehicle: saline 98 % of control | dose: 3.2 mg/kg/injection, schedule: Q01DX Z (ip), vehicle: saline 110 % of control | dose: 5.0 mg/kg/injection, schedule: Q01DX Z (ip), vehicle: saline 121 % of control

O=c1oc2c(ccc3ccccc32)c(O)c1-c1cccc2ccccc12
inactive: dose: 50.0 mg/kg/injection, schedule: Q01DX009 (ip), vehicle: saline with Tween-80 103 % of control | [7] 100 % of control | [8] 93 % of control

CCn1c(C)cc(=O)c2ccccc21
inactive: [4] 105 % of control | [5] 94 % of control

CC(C)(SCC(N)C(=O)O)c1ccc(-c2ccccc2)cc1 (stereo unspecified)
inactive: [12] 88 % of control | [13] 86 % of control | [14] 91 % of control

Cc1ncc2cnccn12
inactive: dose: 50.0 mg/kg/injection, schedule: Q01DX009 (ip), vehicle: saline sonified 101 % of control | dose: 100.0 mg/kg/injection, schedule: Q01DX009 (ip), vehicle: saline sonified 104 % of control | [10] 97 % of control | [11] 101 % of control
